Literature values as cited in patent publication US20100286080A1, “AQUEOUS COMPOSITION COMPRISING CHITOSAN AND AN ACIDIC DRUG” (The Jordanian Pharmaceutical Manufacturing Co., priority 2007, published 2010).

Key:
[1] = single 200-mg oral dose, fasting subjects

- Time of peak plasma levels after administration [1]: about 1 hr
- Solubility in water: practically insoluble in water
SMILES: CC(C)Cc1ccc(C(C)C(=O)O)cc1 (centres unmarked) [Ibuprofen]
